Reference: the supplement of paper PMC11061612

How the values were obtained:
[1] = system: COLO-320-HSR (Colorectal Carcinoma); test: Bliss excess, mean over the matrix (fraction); higher = more synergy
Summary of the method: (§1)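 Cell lines in DMEM/F12 or RPMI with 10% FBS were plated in 1536-well plates, held 24 hours at 37°C, 5% CO2, then given two-drug dose matrices for 72 hours (DMSO typically 0.2%). Viability was read by CellTiter-Glo 2.0 luminescence and scaled as inhibition from 0 (vehicle wells) to 1 (blank wells). Combination Emax is the second-highest inhibition in the matrix; Bliss excess is observed combination effect minus expected EA + EB − EA·EB, EA and EB being single-agent effects.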

[2] = system: VCaP (Prostate Carcinoma); test: as above
Summary of the method: as §1

[3] = system: SISO (Cervical Carcinoma); test: as above
Summary of the method: as §1

[4] = system: CAL-29 (Bladder Carcinoma); test: as above
Summary of the method: as §1

[5] = system: MDST8 (Colorectal Carcinoma); test: as above
Summary of the method: as §1

CAS-1 (Glioblastoma) = test: as above
Summary of the method: as §1

NCI-H2591 (Mesothelioma) [6] = test: as above
Summary of the method: as §1

[7] = system: NCI-H1581 (Non-Small Cell Lung Carcinoma); test: as above
Summary of the method: as §1

NY (Osteosarcoma) = test: as above
Summary of the method: as §1

[8] = system: TT (Thyroid Gland Carcinoma); test: as above
Summary of the method: as §1

[9] = system: TT2609-C02 (Thyroid Gland Carcinoma); test: as above
Summary of the method: as §1

[10] = system: OS-RC-2 (Kidney Carcinoma); test: as above
Summary of the method: as §1

[11] = system: NCI-H2066 (Squamous Cell Lung Carcinoma); test: as above
Summary of the method: as §1

[12] = system: SK-MG-1 (Low Grade Glioma); test: as above
Summary of the method: as §1

IGR-37 (Melanoma) = test: as above
Summary of the method: as §1

[13] = system: HCC1954 (Breast Carcinoma); test: as above
Summary of the method: as §1

[14] = system: NCI-H2141 (Small Cell Lung Carcinoma); test: as above
Summary of the method: as §1

[15] = system: MDST8 (Colorectal Carcinoma); test: combination Emax (second highest fraction inhibited in the dose matrix, 72 h); higher = more inhibition; extreme values may be limits of the assay
Summary of the method: as §1

NCI-H2591 (Mesothelioma) [16] = test: as above
Summary of the method: as §1

[17] = system: TT2609-C02 (Thyroid Gland Carcinoma); test: as above
Summary of the method: as §1
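Wherever Bliss excess, mean over the matrix is given: after 72 h of two-drug dosing.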

SMILES	Bliss excess [1]	Bliss excess [2]	Bliss excess [3]	Bliss excess [4]	Bliss excess [5]	Bliss excess (CAS-1 (Glioblastoma))	Bliss excess (NCI-H2591 (Mesothelioma) [6])	Bliss excess [7]	Bliss excess (NY (Osteosarcoma))	Bliss excess [8]	Bliss excess [9]	Bliss excess [10]	Bliss excess [11]	Bliss excess [12]	Bliss excess (IGR-37 (Melanoma))	Bliss excess [13]	Bliss excess [14]	combination Emax [15]	combination Emax (NCI-H2591 (Mesothelioma) [16])	combination Emax [17]
C=CCn1c(=O)c2cnc(Nc3ccc(N4CCN(C)CC4)cc3)nc2n1-c1cccc(C(C)(C)O)n1 [AZD1775] + O=C(c1cc(Cc2n[nH]c(=O)c3ccccc23)ccc1F)N1CCN(C(=O)C2CC2)CC1 [Olaparib] (first compound max 1 µM, partner max 10 µM)	-0.0404	-0.0494	0.0151	-0.0722	-0.0308	-0.0352	-0.053	-0.0262	-0.0731	-0.0543	-0.0311	-0.0981	-0.0407	0.0058	-0.0132	-0.0208	-0.0638	0.408	0.253	0.358
CCN(CCO)CCCOc1ccc2c(Nc3cc(CC(=O)Nc4cccc(F)c4)[nH]n3)ncnc2c1 [AZD2811] + C=CCn1c(=O)c2cnc(Nc3ccc(N4CCN(C)CC4)cc3)nc2n1-c1cccc(C(C)(C)O)n1 [AZD1775] (first compound max 1 µM, partner max 1 µM)	-0.0465	-0.0369	0.0157	0.0208	0.064	0.032	0.0107	0.154	-0.0363	-0.0155	-0.0295	-0.0231	-0.0589	-0.0121	-0.023	-0.0269	-0.0082	0.465	0.194	0.361
CCN(CCO)CCCOc1ccc2c(Nc3cc(CC(=O)Nc4cccc(F)c4)[nH]n3)ncnc2c1 [AZD2811] + C[C@@H]1COCCN1C2=NC(=NC(=C2)C3(CC3)[S@](=N)(=O)C)C4=C5C=CNC5=NC=C4 [AZD6738] (first compound max 1 µM, 7x7, partner max 10 µM)	-0.0366	-0.0864	0.0006	-0.0023	-0.0174	-0.0818	-0.0338	-0.0438	-0.0508	-0.0905	-0.0361	-0.0449	-0.0114	-0.0271	-0.0366	-0.0263	-0.0873	0.724	0.315	0.331
CCN(CCO)CCCOc1ccc2c(Nc3cc(CC(=O)Nc4cccc(F)c4)[nH]n3)ncnc2c1 [AZD2811] + O=C(c1cc(Cc2n[nH]c(=O)c3ccccc23)ccc1F)N1CCN(C(=O)C2CC2)CC1 [Olaparib] (first compound max 1 µM, 7x7, partner max 10 µM)	-0.0179	0.0014	0.0951	0.0378	0.0271	-0.0608	-0.0332	-0.0058	-0.0339	-0.0596	0.0022	-0.0261	-0.022	0.0331	-0.0353	-0.0023	-0.0557	0.338	0.182	0.299
CN(CCO)CC[C@H](CSc1ccccc1)Nc1ccc(S(=O)(=O)NC(=O)c2ccc(N3CCC([C@@H](O)c4ccccc4-c4ccc(Cl)cc4)CC3)cc2)cc1S(=O)(=O)C(F)(F)F [AZD4320] + C1CN(CCC1(C(=O)N[C@@H](CCO)C2=CC=C(C=C2)Cl)N)C3=NC=NC4=C3C=CN4 [Capivasertib] (first compound max 1 µM, 7x7, partner max 3 µM)	-0.0136	0.0013	-0.0332	-0.0397	-0.0482	-0.078	-0.0455	-0.0143	-0.0277	-0.0456	-0.0582	-0.0547	0.0311	-0.048	-0.0389	0.0377	-0.027	0.914	0.101	0.0697
CN(CCO)CC[C@H](CSc1ccccc1)Nc1ccc(S(=O)(=O)NC(=O)c2ccc(N3CCC([C@@H](O)c4ccccc4-c4ccc(Cl)cc4)CC3)cc2)cc1S(=O)(=O)C(F)(F)F [AZD4320] + C=CCn1c(=O)c2cnc(Nc3ccc(N4CCN(C)CC4)cc3)nc2n1-c1cccc(C(C)(C)O)n1 [AZD1775] (first compound max 1 µM, partner max 1 µM)	-0.0268	0.0072	-0.0116	0.0124	0.0362	0.0261	-0.0701	0.059	0.0694	-0.0048	-0.0244	-0.0254	-0.0534	0.064	0.0354	0.0823	0.0423	0.992	0.159	0.722
CN(CCO)CC[C@H](CSc1ccccc1)Nc1ccc(S(=O)(=O)NC(=O)c2ccc(N3CCC([C@@H](O)c4ccccc4-c4ccc(Cl)cc4)CC3)cc2)cc1S(=O)(=O)C(F)(F)F [AZD4320] + CCN(CCO)CCCOc1ccc2c(Nc3cc(CC(=O)Nc4cccc(F)c4)[nH]n3)ncnc2c1 [AZD2811] (first compound max 1 µM, 7x7, partner max 1 µM)	-0.0087	0.0003	0.0049	0.103	0.0868	0.0208	0.0015	0.0584	-0.0182	0.0345	0.0411	-0.0659	-0.0391	0.0981	-0.0204	0.149	0.0443	0.918	0.561	0.505
CN(CCO)CC[C@H](CSc1ccccc1)Nc1ccc(S(=O)(=O)NC(=O)c2ccc(N3CCC([C@@H](O)c4ccccc4-c4ccc(Cl)cc4)CC3)cc2)cc1S(=O)(=O)C(F)(F)F [AZD4320] + CN(C)CCCOc1ccc(-c2ccc3ncc4c(c3c2)n(C2CCOCC2)c(=O)n4C)cn1 [AZD0156] (first compound max 1 µM, 7x7, partner max 1 µM)	-0.0136	-0.0185	-0.0343	-0.0187	-0.0419	-0.0328	-0.0508	0.0018	-0.0432	-0.0778	-0.0325	-0.0706	-0.092	-0.0377	-0.0148	0.0526	-0.0151	0.772	0.13	0.148
CN(CCO)CC[C@H](CSc1ccccc1)Nc1ccc(S(=O)(=O)NC(=O)c2ccc(N3CCC([C@@H](O)c4ccccc4-c4ccc(Cl)cc4)CC3)cc2)cc1S(=O)(=O)C(F)(F)F [AZD4320] + Cc1cc2ncnn2cc1Nc1ncc2c(n1)n(C1CCOCC1)c(=O)n2C [AZD7648] (first compound max 1 µM, 7x7, partner max 10 µM)	-0.0099	-0.0185	-0.0328	-0.0074	-0.0283	-0.048	-0.0445	-0.0158	-0.018	-0.0694	-0.0367	-0.0524	0.0299	-0.0239	-0.0132	0.028	0.0109	0.821	0.188	0.182
CN(CCO)CC[C@H](CSc1ccccc1)Nc1ccc(S(=O)(=O)NC(=O)c2ccc(N3CCC([C@@H](O)c4ccccc4-c4ccc(Cl)cc4)CC3)cc2)cc1S(=O)(=O)C(F)(F)F [AZD4320] + Cn1cnc2c(F)c(Nc3ccc(Br)cc3Cl)c(C(=O)NOCCO)cc21 [Selumetinib] (first compound max 1 µM, 7x7, partner max 3 µM)	0.0102	0.0322	0.0504	0.0826	0.0763	-0.054	0.0309	0.0408	0.0072	-0.033	-0.0046	0.0178	0.0432	0.102	-0.0039	0.0665	-0.008	0.955	0.242	0.546
COc1nnc2ccc(N3CCC(c4ccc(OCCN5CCN(C)C(=O)[C@H]5C)cc4)CC3)nn12 [AZD5153] + C=CCn1c(=O)c2cnc(Nc3ccc(N4CCN(C)CC4)cc3)nc2n1-c1cccc(C(C)(C)O)n1 [AZD1775] (first compound max 1 µM, partner max 1 µM)	-0.0801	-0.0756	-0.0346	-0.0699	-0.0455	-0.0825	0.0145	-0.0029	0.0119	-0.0629	-0.0508	-0.0324	-0.0503	-0.0823	-0.0569	-0.0383	-0.021	0.461	0.448	0.622
COc1nnc2ccc(N3CCC(c4ccc(OCCN5CCN(C)C(=O)[C@H]5C)cc4)CC3)nn12 [AZD5153] + CC1(C)CCC(CN2CCN(c3ccc(C(=O)NS(=O)(=O)c4ccc(NCC5CCOCC5)c([N+](=O)[O-])c4)c(Oc4cnc5[nH]ccc5c4)c3)CC2)=C(c2ccc(Cl)cc2)C1 [Venetoclax] (first compound max 1 µM, 7x7, partner max 1 µM)	-0.0657	-0.0486	-0.0335	-0.103	-0.0566	-0.0621	-0.0688	-0.115	-0.0722	-0.0116	-0.106	-0.0584	-0.0919	-0.0571	-0.0171	-0.0391	0.0085	0.324	0.331	0.376
COc1nnc2ccc(N3CCC(c4ccc(OCCN5CCN(C)C(=O)[C@H]5C)cc4)CC3)nn12 [AZD5153] + CCN(CCO)CCCOc1ccc2c(Nc3cc(CC(=O)Nc4cccc(F)c4)[nH]n3)ncnc2c1 [AZD2811] (first compound max 1 µM, 7x7, partner max 1 µM)	-0.0417	-0.0345	0.0112	0.0084	0.0761	-0.0797	-0.0181	-0.143	-0.0314	-0.0755	-0.076	-0.0473	-0.0352	-0.0568	0.0031	-0.011	0.0226	0.466	0.429	0.492
